Drawing on US11613556B2, “Oxysterols and methods of use thereof” (Sage Therapeutics, Inc., priority 2016, dated 2023), this text covers EC50, Emax and activation for eight compounds.

Assay type in all cases: cell-based
The target of assay [1] is GluN1/GluN2A glutamate receptors (human GRIN1/GRIN2A) expressed in HEK293 cells (Homo sapiens (Human), UniProt Q05586+Q12879). Put plainly: Whole-cell patch clamp of mammalian cells (Ionworks Barracuda), positive allosteric modulation, GluN1/GluN2A. Particulars: for Emax: read-out: GluN2A PCA EMax (%). In a few lines: (§1)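 Ionworks Barracuda perforated-patch recordings, holding −70 mV, −40 mV during application; CsCl/CsF intracellular pH 7.2, HB-PS extracellular pH 7.4 with 5 mM CaCl2. 5 min pre-application of test article alone, then co-application with EC20 L-glutamate plus 30 μM glycine; potentiation read as peak current amplitude.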
For orientation: The patch-clamp technique gives a direct electrical read-out from membranes.

Assay [2] has as its target glutamate-activated channels of the GRIN1/2A subtype stably transfected in HEK 293 cells (Homo sapiens (Human), UniProt Q05586+Q12879). As to the kind of experiment: Automated patch-clamp system (QPatch HTX), percent potentiation at 1 μM. The settings on record: HEK293, 1 μM test compound, 300 μM NMDA with 8 μM glycine, HEK 293 GRIN1/2A, read-out: GluN2A PCA % potentiation at 1 μM. The method, boiled down: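 Tetracycline-induced HEK 293 cells stably expressing human GRIN1/2A were whole-cell recorded on QPatch HTX in Mg-free bath solution at pH 7.4. Compound at 1.0 μM (0.1% DMSO) was co-applied with submaximal 300 μM NMDA plus 8 μM glycine, and percent potentiation was recorded.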

Assay [3] addresses GluN2B glutamate receptors expressed in mammalian cells (Homo sapiens (Human), UniProt Q05586+Q13224). Put plainly: Whole-cell patch clamp of mammalian cells (Ionworks Barracuda), positive allosteric modulation, GluN2B. The settings on record: for Emax: read-out: GluN2B PCA EMax (%). In a few lines: as §1
[4] abbreviates: peak current amplitude, co-application with EC20 L-glutamate and 30 μM glycine, HEK293.
Where [5] appears, read: peak current amplitude, co-application with EC20 L-glutamate and 30 μM glycine, read-out: GluN2B PCA EC50.
[6] abbreviates: peak current amplitude, co-application with EC20 L-glutamate and 30 μM glycine.
Setting [7] is: peak current amplitude, co-application with EC20 L-glutamate and 30 μM glycine, HEK293, read-out: GluN2A PCA EC50.

Read-outs that look alike come from different tables or passages of the source. A value given as a limit tells only on which side of the number the result lay.

Chain of glutamate-activated channels of the GRIN1/2A subtype stably transfected in HEK 293 cells (Q12879 whole entry, looked up, other chains not shown): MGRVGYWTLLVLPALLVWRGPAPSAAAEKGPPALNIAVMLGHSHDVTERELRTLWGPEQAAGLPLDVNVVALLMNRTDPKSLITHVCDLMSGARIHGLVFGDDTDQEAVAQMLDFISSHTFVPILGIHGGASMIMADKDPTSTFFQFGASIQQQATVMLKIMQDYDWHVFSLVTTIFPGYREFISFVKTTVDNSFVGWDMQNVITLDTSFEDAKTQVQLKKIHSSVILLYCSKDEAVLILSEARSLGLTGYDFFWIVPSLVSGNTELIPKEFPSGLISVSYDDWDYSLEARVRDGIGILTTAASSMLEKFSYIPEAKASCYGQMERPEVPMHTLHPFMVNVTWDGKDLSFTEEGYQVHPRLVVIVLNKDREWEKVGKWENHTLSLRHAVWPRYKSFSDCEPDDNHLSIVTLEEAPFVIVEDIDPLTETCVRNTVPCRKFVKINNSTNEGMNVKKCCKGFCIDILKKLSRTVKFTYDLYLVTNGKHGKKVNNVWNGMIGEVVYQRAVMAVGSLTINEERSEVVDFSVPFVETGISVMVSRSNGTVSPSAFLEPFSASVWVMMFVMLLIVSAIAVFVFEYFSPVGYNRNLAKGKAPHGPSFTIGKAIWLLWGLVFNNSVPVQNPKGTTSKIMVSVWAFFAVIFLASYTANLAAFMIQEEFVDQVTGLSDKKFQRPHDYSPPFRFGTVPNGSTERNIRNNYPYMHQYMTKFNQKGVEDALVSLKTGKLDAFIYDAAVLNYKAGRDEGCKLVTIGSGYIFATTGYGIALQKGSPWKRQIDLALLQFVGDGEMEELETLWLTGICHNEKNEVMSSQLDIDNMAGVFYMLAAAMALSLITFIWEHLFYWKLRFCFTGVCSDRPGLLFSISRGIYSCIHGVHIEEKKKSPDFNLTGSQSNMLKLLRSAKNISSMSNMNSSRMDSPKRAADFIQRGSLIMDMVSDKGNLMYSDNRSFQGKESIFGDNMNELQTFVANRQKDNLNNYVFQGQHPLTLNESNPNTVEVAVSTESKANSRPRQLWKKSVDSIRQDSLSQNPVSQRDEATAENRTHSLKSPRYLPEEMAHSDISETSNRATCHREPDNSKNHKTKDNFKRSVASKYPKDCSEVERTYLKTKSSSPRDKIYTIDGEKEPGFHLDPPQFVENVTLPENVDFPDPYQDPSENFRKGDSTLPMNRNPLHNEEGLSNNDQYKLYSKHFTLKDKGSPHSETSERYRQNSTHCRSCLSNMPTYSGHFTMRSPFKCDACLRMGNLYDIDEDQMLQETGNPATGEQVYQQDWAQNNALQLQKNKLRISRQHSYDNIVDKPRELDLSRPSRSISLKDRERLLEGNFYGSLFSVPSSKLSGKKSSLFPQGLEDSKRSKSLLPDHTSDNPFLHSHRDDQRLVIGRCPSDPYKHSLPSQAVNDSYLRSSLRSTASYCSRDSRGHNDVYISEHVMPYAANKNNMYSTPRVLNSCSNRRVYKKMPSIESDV
Chain of GluN1/GluN2A glutamate receptors (human GRIN1/GRIN2A) expressed in HEK293 cells (Q12879 whole entry, looked up, other chains not shown): as above
Chain of GluN2B glutamate receptors expressed in mammalian cells (Q13224 27-1484, other chains not shown): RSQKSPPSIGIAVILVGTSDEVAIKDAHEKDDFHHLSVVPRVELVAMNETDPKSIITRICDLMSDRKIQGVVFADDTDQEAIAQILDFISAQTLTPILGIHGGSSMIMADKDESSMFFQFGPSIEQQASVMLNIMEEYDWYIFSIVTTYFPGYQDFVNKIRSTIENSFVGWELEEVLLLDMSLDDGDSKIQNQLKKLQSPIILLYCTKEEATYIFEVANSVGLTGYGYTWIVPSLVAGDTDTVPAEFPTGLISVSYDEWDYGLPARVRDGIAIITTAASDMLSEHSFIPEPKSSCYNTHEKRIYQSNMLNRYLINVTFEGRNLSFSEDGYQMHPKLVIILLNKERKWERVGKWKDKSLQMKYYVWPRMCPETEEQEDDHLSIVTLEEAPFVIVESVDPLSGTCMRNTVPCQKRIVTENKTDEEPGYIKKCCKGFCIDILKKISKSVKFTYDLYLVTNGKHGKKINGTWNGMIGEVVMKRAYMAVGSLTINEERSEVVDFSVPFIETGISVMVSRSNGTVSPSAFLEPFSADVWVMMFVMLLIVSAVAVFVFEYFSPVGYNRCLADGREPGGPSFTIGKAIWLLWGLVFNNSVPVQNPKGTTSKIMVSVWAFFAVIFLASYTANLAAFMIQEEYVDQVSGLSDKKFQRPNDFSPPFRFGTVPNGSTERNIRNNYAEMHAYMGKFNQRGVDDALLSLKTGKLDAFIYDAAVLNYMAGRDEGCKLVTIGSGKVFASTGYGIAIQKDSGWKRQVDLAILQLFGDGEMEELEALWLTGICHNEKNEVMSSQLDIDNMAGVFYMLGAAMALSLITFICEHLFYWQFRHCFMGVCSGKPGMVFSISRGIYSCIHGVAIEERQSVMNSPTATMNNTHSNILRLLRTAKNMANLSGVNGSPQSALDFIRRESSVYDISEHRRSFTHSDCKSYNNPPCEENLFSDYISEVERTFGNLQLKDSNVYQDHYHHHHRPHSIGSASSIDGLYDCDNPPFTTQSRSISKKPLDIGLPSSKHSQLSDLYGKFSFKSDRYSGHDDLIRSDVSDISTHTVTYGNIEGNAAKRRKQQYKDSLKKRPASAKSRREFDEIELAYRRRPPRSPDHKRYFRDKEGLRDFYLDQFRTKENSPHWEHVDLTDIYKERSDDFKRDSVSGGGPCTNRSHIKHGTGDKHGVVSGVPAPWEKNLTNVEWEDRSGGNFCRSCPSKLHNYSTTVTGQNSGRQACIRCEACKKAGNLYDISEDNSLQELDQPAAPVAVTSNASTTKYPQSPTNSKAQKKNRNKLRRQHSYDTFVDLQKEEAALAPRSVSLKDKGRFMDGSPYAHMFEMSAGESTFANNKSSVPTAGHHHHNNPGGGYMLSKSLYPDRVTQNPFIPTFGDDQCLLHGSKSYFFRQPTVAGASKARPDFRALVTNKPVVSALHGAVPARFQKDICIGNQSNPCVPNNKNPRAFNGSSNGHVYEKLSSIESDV

On to `CC[C@]1(O)CC[C@@]2(C)C(=CC[C@H]3[C@@H]4CC[C@H]([C@H](C)[C@@H](O)CCC5CC5)[C@@]4(C)CC[C@@H]32)C1` [Compound 69, (3S,8S,9S,10R,13S,14S,17R)-17-((2S,3S)-5-cyclopropyl-3-hydroxypentan-2-yl)-3-ethyl-10,13-dimethyl-2,3,4,7,8,9,10,11,12,13,14,15,16,17-tetradecahydro-1H-cyclopenta[a]phenanthren-3-ol], for which the EC50 in assay [1] and in assay [3] (setting [5]) was greater than 1000 nM each time. The Emax in assay [1] (setting [4]) and in assay [3] (setting [6]) was less than 100% in each case. Also, the activation at 1 µM in assay [2] is -10 to 10%.

As to `CCC[C@H](O)[C@@H](C)[C@H]1CC[C@H]2[C@@H]3CC=C4C[C@](O)(CC)CC[C@]4(C)[C@H]3CC[C@]12C` [Compound 72, (3S,8S,9S,10R,13S,14S,17R)-3-ethyl-17-((2S,3S)-3-hydroxyhexan-2-yl)-10,13-dimethyl-2,3,4,7,8,9,10,11,12,13,14,15,16,17-tetradecahydro-1H-cyclopenta[a]phenanthren-3-ol], the EC50 in assay [1] and in assay [3] (setting [5]) was greater than 1000 nM throughout. Further, the Emax in assay [1] (setting [4]) and in assay [3] (setting [6]) was less than 100% throughout. Moreover, the activation at 1 µM in assay [2] is -40 to -10%.

On to `CC[C@]1(O)CC[C@@]2(C)[C@@H](CC[C@@H]3[C@@H]2CC[C@]2(C)[C@@H]([C@H](C)[C@H](O)CC4CCCC4)CC[C@@H]32)C1` [Compound 84, (3S,5S,8R,9S,10S,13S,14S,17R)-17-((2S,3R)-4-cyclopentyl-3-hydroxybutan-2-yl)-3-ethyl-10,13-dimethylhexadecahydro-1H-cyclopenta[a]phenanthren-3-ol], for which the EC50 in assay [1] and in assay [3] (setting [5]) was greater than 1000 nM each time. For the same compound, the Emax in assay [1] (setting [4]) and in assay [3] (setting [6]) was less than 100% throughout. Also, the activation at 1 µM in assay [2] was -10 to 10%.

For the compound `CC[C@]1(O)CC[C@@]2(C)[C@H](CC[C@@H]3[C@@H]2CC[C@]2(C)[C@@H]([C@H](C)[C@H](O)CC4CCC(C)(C)CC4)CC[C@@H]32)C1` [Compound 87, (3S,5R,8R,9S,10S,13S,14S,17R)-17-((2S,3R)-4-(4,4-dimethylcyclohexyl)-3-hydroxybutan-2-yl)-3-ethyl-10,13-dimethylhexadecahydro-1H-cyclopenta[a]phenanthren-3-ol], the EC50 in assay [1] (setting [7]) and in assay [3] was greater than 1000 nM in each case. Further, the Emax in assay [1] (setting [4]) and in assay [3] was less than 100% in each case. Further, the activation at 1 µM in assay [2] was -10 to 10%.

Turning to `CC[C@]1(O)CC[C@@]2(C)[C@H](CC[C@@H]3[C@@H]2CC[C@]2(C)[C@@H]([C@H](C)[C@@H](O)CC4CCCC4)CC[C@@H]32)C1` [Compound 94, (3S,5R,8R,9S,10S,13S,14S,17R)-17-((2S,3S)-4-cyclopentyl-3-hydroxybutan-2-yl)-3-ethyl-10,13-dimethylhexadecahydro-1H-cyclopenta[a]phenanthren-3-ol], the EC50 in assay [1] and in assay [3] (setting [5]) was greater than 1000 nM in each case. Besides, the Emax in assay [1] (setting [4]) and in assay [3] (setting [6]) was less than 100% throughout. Also, the activation at 1 µM in assay [2] is -40 to -10%.

In the case of `CC[C@]1(O)CC[C@@]2(C)[C@H](CC[C@@H]3[C@@H]2CC[C@]2(C)[C@@H]([C@H](C)[C@H](O)CCC(C)C)CC[C@@H]32)C1` [Compound 96, (3S,5R,8R,9S,10S,13S,14S,17R)-3-ethyl-17-((2S,3R)-3-hydroxy-6-methylheptan-2-yl)-10,13-dimethylhexadecahydro-1H-cyclopenta[a]phenanthren-3-ol], the figures for the EC50 in assay [1] (setting [7]) and in assay [3] were 100 to 1000 nM and greater than 1000 nM, respectively. For the same compound, the Emax in assay [1] (setting [4]) and in assay [3] was less than 100% in each case. The activation at 1 µM in assay [2] was -10 to 10%.

Take `CC[C@]1(O)CC[C@@]2(C)[C@@H](CC[C@@H]3[C@@H]2CC[C@]2(C)[C@@H]([C@H](C)[C@@H](O)CC4CCCC4)CC[C@@H]32)C1` [Compound 98, (3S,5S,8R,9S,10S,13S,14S,17R)-17-((2S,3S)-4-cyclopentyl-3-hydroxybutan-2-yl)-3-ethyl-10,13-dimethylhexadecahydro-1H-cyclopenta[a]phenanthren-3-ol]: the EC50 in assay [1] and in assay [3] (setting [5]) was greater than 1000 nM in each case. In addition, the Emax in assay [1] (setting [4]) and in assay [3] (setting [6]) was less than 100% each time. In addition, the activation at 1 µM in assay [2] was -40 to -10%.

Take `CC[C@]1(O)CC[C@@]2(C)C(=CC[C@H]3[C@@H]4CC[C@H]([C@H](C)[C@@H](O)CC5CCCC5)[C@@]4(C)CC[C@@H]32)C1` [Compound 100, (3S,8S,9S,10R,13S,14S,17R)-17-((2S,3S)-4-cyclopentyl-3-hydroxybutan-2-yl)-3-ethyl-10,13-dimethyl-2,3,4,7,8,9,10,11,12,13,14,15,16,17-tetradecahydro-1H-cyclopenta[a]phenanthren-3-ol]: the EC50 in assay [1] and in assay [3] (setting [5]) was greater than 1000 nM throughout. Moreover, the Emax in assay [1] (setting [4]) and in assay [3] (setting [6]) was less than 100% in each case. The activation at 1 µM in assay [2] was -40 to -10%.

For orientation: EC50 means the concentration giving half of the maximal effect. Broadly, the Emax is the size of the effect at its maximum, as opposed to the concentration needed.
